The record followed here is patent publication US9062066B2, “Anti-inflammatory compound having inhibitory activity against multiple tyrosine kinases and pharmaceutical composition containing same” (KOREA INSTITUTE OF SCIENCE AND TECHNOLOGY, priority 2010, dated 2015).

Read-outs that look alike come from different tables or passages of the source.

In experiment [1] the test system is oxazolone-induced skin inflammation of Balb/C mouse ears. The experiment is described as follows: mouse skin inflammatory model induced by oxazolone (ear thickness). The format is in vivo. As to conditions: 20 ul of 0.1% compound topical on ear, 36 hours after oxazolone. As to the method: The compounds of the present invention were evaluated for their effective anti-inflammatory activity using a skin inflammatory animal model of 8 weeks old Balb/C mouse ears induced by oxazolone. […] After 4 days, the thickness of ear was measured using a caliper for the thickness value of ear before the induction of inflammation. […] After 36 hours, the thickness of ear was measured for the increased thickness induced by inflammation. […] The average value was obtained in each group (n=4).

Experiment [2] concerns the target Fgr tyrosine kinase (Homo sapiens (Human), UniProt P09769). The experiment in a line: in vitro Fgr tyrosine kinase inhibition. The format is biochemical. As to conditions: 1 uM compound; read-out: % inhibition against Fgr.
Experiment [3] has as its target Hck tyrosine kinase (Homo sapiens (Human), UniProt P08631). The experiment is described as follows: in vitro Hck tyrosine kinase inhibition. The class given is biochemical. As to conditions: 1 uM compound; read-out: % inhibition against Hck.
Experiment [4] addresses c-Src tyrosine kinase (Homo sapiens (Human), UniProt P12931). The experiment in a line: in vitro c-Src tyrosine kinase inhibition (32P-ATP, poly(D4Y)n substrate). The following applies: 1 uM compound; read-out: % inhibition against c-Src. The format is biochemical.
Experiment [5] has as its system NO synthesis in J744A.1 macrophage. The experiment in a line: inhibition of nitric oxide (NO) synthesis in LPS-activated macrophages (Griess reagent). The format is cell-based. The following applies: read-out: Inhibition (%) of NO synthesis.
The test system of experiment [6] is TNF-α synthesis in J744A.1 macrophages. The experiment is described as follows: inhibition of TNF-α synthesis in LPS-activated macrophages (ELISA). The class given is cell-based. As to conditions: Macrophage, read-out: Inhibition (%) of TNF-α synthesis. (In general: In an ELISA, binding on a coated surface is turned into a signal by an enzyme label.)
The subject of experiment [7] is α-smooth muscle actin protein expression in skin fibroblast cells. The experiment is described as follows: inhibition of α-smooth muscle actin expression in fibroblast activated by type I collagen and TGF-β1 (western blotting). The class given is cell-based, Balb/C mouse. The following applies: Mus musculus, 0.5 uM compound, 10 ng/ml TGF-β1, 48 hours, type I collagen, read-out: Inhibition (%) of α-smooth muscle actin increase. The method in brief: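 α-Smooth muscle actin protein was detected by western blotting with chemiluminescence on X-ray film. Levels were quantified by densitometry of the band.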
A general note: A western blot detects proteins with antibodies after separation by electrophoresis.

Experiment [8] concerns the target DDR2 tyrosine kinase (Homo sapiens (Human), UniProt Q16832). The experiment in a line: in vitro DDR2 tyrosine kinase inhibition (GST-fused kinase domain). The class given is biochemical. As to conditions: 1 uM compound; read-out: % inhibition against DDR2.
Experiment [9] deals with mouse skin fibroblast. The experiment is described as follows: inhibition of migration of activated fibroblast (scratch wound). The class given is cell-based. The following applies: 0.5 uM compound, 10 ng/ml TGF-β1, 24 hours, read-out: Inhibition (%) of migration of activated fibroblast. The method in brief:
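Scratch wound was made on a fibroblast monolayer, then cells were kept in DMEM with 10 ng/ml TGF-β1 at 37° C for 24 hours. After formalin fixation and crystal violet staining, cells that had moved into the wound were counted at 100× in five random fields and averaged.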

Experiment [10] deals with DDR1 tyrosine kinase (Homo sapiens (Human), UniProt Q08345). The experiment in a line: in vitro DDR1 tyrosine kinase inhibition (GST-fused kinase domain). As to conditions: 1 uM compound; read-out: % inhibition against DDR1. The format is biochemical.
Chain of DDR1 tyrosine kinase (Q08345 610-905): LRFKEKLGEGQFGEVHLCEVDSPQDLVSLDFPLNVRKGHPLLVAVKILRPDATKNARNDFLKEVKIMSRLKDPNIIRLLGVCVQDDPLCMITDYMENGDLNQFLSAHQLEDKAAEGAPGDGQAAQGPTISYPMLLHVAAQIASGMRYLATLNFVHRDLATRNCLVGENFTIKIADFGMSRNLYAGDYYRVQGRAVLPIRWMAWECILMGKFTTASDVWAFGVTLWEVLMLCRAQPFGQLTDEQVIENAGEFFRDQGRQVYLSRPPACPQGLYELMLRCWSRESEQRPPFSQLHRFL
Experiment [11] deals with Lyn tyrosine kinase (Homo sapiens (Human), UniProt P07948). The experiment in a line: in vitro Lyn tyrosine kinase inhibition. The class given is biochemical. As to conditions: 1 uM compound; read-out: % inhibition against Lyn.
Chain of Lyn tyrosine kinase (P07948 whole entry): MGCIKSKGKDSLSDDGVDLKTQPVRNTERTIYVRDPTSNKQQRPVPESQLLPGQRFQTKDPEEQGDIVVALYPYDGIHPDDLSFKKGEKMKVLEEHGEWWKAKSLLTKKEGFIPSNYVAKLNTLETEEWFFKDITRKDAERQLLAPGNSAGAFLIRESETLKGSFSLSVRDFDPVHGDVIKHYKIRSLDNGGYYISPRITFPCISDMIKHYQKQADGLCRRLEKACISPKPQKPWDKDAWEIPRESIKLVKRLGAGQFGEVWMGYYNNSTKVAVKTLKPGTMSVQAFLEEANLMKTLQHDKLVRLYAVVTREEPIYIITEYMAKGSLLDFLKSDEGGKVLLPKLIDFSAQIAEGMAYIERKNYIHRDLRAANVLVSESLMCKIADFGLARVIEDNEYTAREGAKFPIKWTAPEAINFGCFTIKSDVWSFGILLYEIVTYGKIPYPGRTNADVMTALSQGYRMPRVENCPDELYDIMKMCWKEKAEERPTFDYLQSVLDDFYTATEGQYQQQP
The mark [12] stands for this setting: 10 μM compound, 100 ng/ml LPS, 6 hours.

Chain of DDR2 tyrosine kinase (Q16832 563-849): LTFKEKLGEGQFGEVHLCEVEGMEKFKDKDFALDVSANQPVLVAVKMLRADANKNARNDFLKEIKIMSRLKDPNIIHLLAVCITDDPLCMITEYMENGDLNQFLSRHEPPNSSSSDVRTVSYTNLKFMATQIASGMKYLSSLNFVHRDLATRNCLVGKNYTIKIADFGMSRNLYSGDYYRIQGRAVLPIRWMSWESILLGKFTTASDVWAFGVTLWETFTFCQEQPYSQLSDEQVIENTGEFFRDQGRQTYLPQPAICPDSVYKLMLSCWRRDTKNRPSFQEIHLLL
Chain of Hck tyrosine kinase (P08631 whole entry): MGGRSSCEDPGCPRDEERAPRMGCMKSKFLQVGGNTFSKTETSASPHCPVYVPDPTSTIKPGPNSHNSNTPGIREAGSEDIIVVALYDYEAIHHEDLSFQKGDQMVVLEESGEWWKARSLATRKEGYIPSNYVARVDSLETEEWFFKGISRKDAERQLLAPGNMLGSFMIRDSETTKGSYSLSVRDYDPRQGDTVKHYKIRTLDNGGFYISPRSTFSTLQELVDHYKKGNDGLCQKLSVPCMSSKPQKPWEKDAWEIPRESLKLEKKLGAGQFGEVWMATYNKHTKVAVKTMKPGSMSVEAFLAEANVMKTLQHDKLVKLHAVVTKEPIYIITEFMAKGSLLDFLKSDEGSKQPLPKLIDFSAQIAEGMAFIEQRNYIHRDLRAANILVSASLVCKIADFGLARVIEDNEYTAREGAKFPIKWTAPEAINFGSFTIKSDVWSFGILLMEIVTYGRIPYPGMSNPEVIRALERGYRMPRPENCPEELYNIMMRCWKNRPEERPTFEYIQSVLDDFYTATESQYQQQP
Chain of c-Src tyrosine kinase (P12931 whole entry, looked up): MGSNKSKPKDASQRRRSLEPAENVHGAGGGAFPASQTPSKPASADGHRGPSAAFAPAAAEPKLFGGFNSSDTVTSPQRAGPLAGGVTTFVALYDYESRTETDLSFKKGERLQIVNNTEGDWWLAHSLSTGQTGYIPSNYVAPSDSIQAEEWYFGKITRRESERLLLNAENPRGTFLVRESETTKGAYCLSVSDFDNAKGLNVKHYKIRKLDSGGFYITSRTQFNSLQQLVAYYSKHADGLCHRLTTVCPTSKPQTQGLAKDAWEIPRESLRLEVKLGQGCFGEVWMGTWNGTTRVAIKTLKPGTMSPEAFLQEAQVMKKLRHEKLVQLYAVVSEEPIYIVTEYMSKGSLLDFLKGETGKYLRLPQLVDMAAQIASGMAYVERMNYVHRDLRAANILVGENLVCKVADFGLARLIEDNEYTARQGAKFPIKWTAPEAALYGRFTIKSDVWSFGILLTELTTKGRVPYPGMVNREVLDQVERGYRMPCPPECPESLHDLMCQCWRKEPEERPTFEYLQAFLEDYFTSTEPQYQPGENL
Chain of Fgr tyrosine kinase (P09769 whole entry): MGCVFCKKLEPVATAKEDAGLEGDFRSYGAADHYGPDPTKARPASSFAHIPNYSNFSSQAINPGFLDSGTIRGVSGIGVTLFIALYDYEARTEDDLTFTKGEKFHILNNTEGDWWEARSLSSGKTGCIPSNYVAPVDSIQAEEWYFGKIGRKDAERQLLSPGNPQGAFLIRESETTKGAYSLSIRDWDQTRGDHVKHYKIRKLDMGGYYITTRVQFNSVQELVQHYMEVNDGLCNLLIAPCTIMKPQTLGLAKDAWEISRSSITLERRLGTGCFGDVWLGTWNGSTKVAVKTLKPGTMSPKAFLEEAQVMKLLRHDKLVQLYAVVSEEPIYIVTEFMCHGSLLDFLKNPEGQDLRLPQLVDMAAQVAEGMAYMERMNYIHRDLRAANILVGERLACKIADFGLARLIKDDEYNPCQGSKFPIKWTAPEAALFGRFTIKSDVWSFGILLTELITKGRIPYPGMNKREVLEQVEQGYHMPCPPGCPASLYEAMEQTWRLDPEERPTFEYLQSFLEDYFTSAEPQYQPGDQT

For the compound `Cl.Oc1cccc(Nc2ncnc3cc(-c4cccc(CN5CCOCC5)c4)sc23)c1` [LCB 03-0066, 3-(6-(3-(morpholinomethyl)phenyl)thieno[3,2-d]pyrimidin-4-ylamino)phenol], the “Inhibition (%) of increase of ear thickness” value in [1] stood at 67%. For the same compound, the inhibition at 1 µM in experiment [2], in [3], in experiment [4], in experiment [8], in [10] and in experiment [11] was over 80% in each case. Moreover, the inhibition at 10 µM in experiment [5] (10 μM compound, LPS, 24 hours) came to 87%; in experiment [6] (setting [12]), 93%. In addition, the inhibition at 0.5 µM in [7] amounted to 75%; in experiment [9], 54%.
For `CC(C)CNCc1cccc(-c2cc3ncnc(Nc4cccc(O)c4)c3s2)c1.Cl` [LCB 03-0067, 3-(6-(3-((isobutylamino)methyl)phenyl)thieno[3,2-d]pyrimidin-4-ylamino)phenol], in [1], the “Inhibition (%) of increase of ear thickness” value is listed as 54%. Further, the inhibition at 1 µM in experiment [2], in experiment [3], in experiment [4], in [8], in experiment [10] and in experiment [11] was over 80% in each case. The inhibition at 10 µM in experiment [5] (10 μM compound, LPS, 24 hours) worked out at 85%; in experiment [6] (setting [12]), 83%. Besides, the values for the inhibition at 0.5 µM in [7] and in [9] were 49% and 33%, respectively.
On to `Cl.OCCNCc1ccc(-c2cc3ncnc(Nc4cccc(O)c4)c3s2)cc1` [LCB 03-0070, 3-(6-(4-((2-hydroxyethylamino)methyl)phenyl)thieno[3,2-d]pyrimidin-4-ylamino)phenol], for which, in [1], the “Inhibition (%) of increase of ear thickness” value was determined as 55%. Also, the inhibition at 1 µM in experiment [2], in experiment [3], in [4], in [8], in [10] and in [11] was over 80% in each case. Further, the inhibition at 10 µM in [5] (10 μM compound, LPS, 24 hours) was determined as 90%; in experiment [6] (setting [12]) it was 77%. For the same compound, the inhibition at 0.5 µM turned out to be 42% in [7] and 30% in experiment [9].
Regarding `Cl.Oc1cccc(Nc2ncnc3cc(-c4cccc(CCN5CCCC5)c4)sc23)c1` [LCB 03-0076, 3-(6-(3-(2-(pyrrolidin-1-yl)ethyl)phenyl)thieno[3,2-d]pyrimidin-4-ylamino)phenol], the “Inhibition (%) of increase of ear thickness” value in [1] was found to be 54%. In addition, the inhibition at 1 µM in experiment [2], in experiment [3], in experiment [4], in [8], in experiment [10] and in experiment [11] was over 80% each time. Also, the inhibition at 10 µM came out at 91% in experiment [5] (10 μM compound, LPS, 24 hours) and 90% in experiment [6] (setting [12]). Also, the inhibition at 0.5 µM in experiment [7] was 57%; in experiment [9] it was 45%.
In the case of `Oc1cccc(Nc2ncnc3cc(-c4cccc(CCN5CCNCC5)c4)sc23)c1` [LCB 03-0079, 3-(6-(3-(2-(piperazin-1-yl)ethyl)phenyl)thieno[3,2-d]pyrimidin-4-ylamino)phenol], the “Inhibition (%) of increase of ear thickness” value in experiment [1] worked out at 51%. The inhibition at 1 µM in experiment [2], in experiment [3], in experiment [4], in experiment [8], in [10] and in experiment [11] was over 80% each time. For the same compound, the inhibition at 10 µM in experiment [5] (10 μM compound, LPS, 24 hours) was 74%; in [6] (setting [12]), 67%. The inhibition at 0.5 µM in experiment [7] is 61%; in experiment [9] it was 41%.
Take `Oc1cccc(Nc2ccnc3cc(-c4ccc(CN5CCCC5)cc4)sc23)c1` [LCB 03-0080, 3-(2-(4-(pyrrolidin-1-ylmethyl)phenyl)thieno[3,2-b]pyridin-7-ylamino)phenol]: in [1], the “Inhibition (%) of increase of ear thickness” value is given as 53%. Further, the inhibition at 1 µM was over 60% in experiment [2]; over 60% in experiment [3]; over 60% in experiment [4]; over 80% in experiment [8]; over 80% in experiment [10]; over 60% in experiment [11]. In addition, the inhibition at 10 µM in [5] (24 h) was determined as 78%; in [6] (6 h), 59%. Besides, the inhibition at 0.5 µM in experiment [7] is 62%; in experiment [9], 41%.
Consider `Oc1cccc(Nc2ccnc3cc(-c4ccc(CN5CCOCC5)cc4)sc23)c1` [LCB 03-0083, 3-(2-(4-(morpholinomethyl)phenyl)thieno[3,2-b]pyridin-7-ylamino)phenol], for which, in experiment [1], the “Inhibition (%) of increase of ear thickness” value turned out to be 47%. Besides, the inhibition at 1 µM in experiment [2] was over 60%; in experiment [3], over 60%; in experiment [4], over 60%; in [8] it was over 80%; in experiment [10], over 80%; in [11], over 60%. Besides, the inhibition at 10 µM in experiment [5] (10 μM compound, LPS, 24 hours) worked out at 71%; in experiment [6] (setting [12]) it was 62%. Besides, the results for the inhibition at 0.5 µM in experiment [7] and in experiment [9] were 55% and 33%, respectively.
On to `CN1CCN(Cc2ccc(-c3cc4nccc(Nc5cccc(O)c5)c4s3)cc2)CC1` [LCB 03-0084, 3-(2-(4-((4-methylpiperazin-1-yl)methyl)phenyl)thieno[3,2-b]pyridin-7-ylamino)phenol], for which, in [1], the “Inhibition (%) of increase of ear thickness” value is 49%. The inhibition at 1 µM in experiment [2] is over 60%; in [3] it was over 60%; in [4], over 60%; in experiment [8] it was over 80%; in experiment [10] it was over 80%; in experiment [11], over 60%. Besides, the inhibition at 10 µM in experiment [5] (10 μM compound, LPS, 24 hours) came out at 85%; in experiment [6] (setting [12]) it was 64%. Also, the figures for the inhibition at 0.5 µM in experiment [7] and in [9] were 57% and 36%, respectively.
For `Oc1cccc(Nc2ncnc3cc(-c4ccc(CN5CCCC5)s4)sc23)c1` [LCB 03-0085, 3-(6-(5-(pyrrolidin-1-ylmethyl)thiophene-2-yl)thieno[3,2-d]pyrimidin-4-ylamino)phenol], the “Inhibition (%) of increase of ear thickness” value in experiment [1] was found to be 53%. Moreover, the inhibition at 1 µM in experiment [2] was over 70%; in [3] it was over 70%; in experiment [4], over 70%; in experiment [8], over 80%; in experiment [10], over 80%; in experiment [11] it was over 70%. Besides, the inhibition at 10 µM in experiment [5] (24 h) is 93%; in experiment [6] (6 h) it was 74%. In addition, the inhibition at 0.5 µM turned out to be 51% in experiment [7] and 35% in experiment [9].
With `Oc1cccc(Nc2ncnc3cc(-c4ccc(CN5CCCC5)o4)sc23)c1` [LCB 03-0086, 3-(6-(5-(pyrrolidin-1-ylmethyl)furan-2-yl)thieno[3,2-d]pyrimidin-4-ylamino)phenol], in experiment [1], the “Inhibition (%) of increase of ear thickness” value amounted to 48%. Besides, the inhibition at 1 µM was over 70% in experiment [2]; over 70% in experiment [3]; over 70% in experiment [4]; over 80% in [8]; over 80% in experiment [10]; over 70% in [11]. Also, the inhibition at 10 µM in experiment [5] (24 h) stood at 72%; in [6] (6 h), 68%. The inhibition at 0.5 µM is 33% in experiment [7] and 21% in experiment [9].
For `CN1CCN(Cc2ccc(-c3cc4ncnc(Nc5cccc(O)c5)c4s3)o2)CC1` [LCB 03-0087, 3-(6-(5-((4-methylpiperazin-1-yl)methyl)furan-2-yl)thieno[3,2-d]pyrimidin-4-ylamino)phenol], in experiment [1], the “Inhibition (%) of increase of ear thickness” value was determined as 43%. For the same compound, the inhibition at 1 µM in experiment [2], in experiment [3], in [4], in [8], in experiment [10] and in experiment [11] was over 70% each time. Besides, the inhibition at 10 µM stood at 83% in experiment [5] (24 h) and 68% in experiment [6] (6 h). Moreover, the inhibition at 0.5 µM in experiment [7] is 29%; in experiment [9] it was 24%.
